Data as given in patent publication US9302991B2, “Arylamide derivatives as TTX-S blockers” (RaQualia Pharma Inc., priority 2010, dated 2016).

Target: T1, human Nav1.7 channels (Homo sapiens, UniProt Q15858)
T1 construct: expressed in transfected cells; host or cells: CHO
Assay: FRET assay, human Nav1.7 (EFS on FDSS)
Type: cell-based
Conditions: CHO cells expressing human Nav1.7, read-out: IC50 against Nav1.7
Outline: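 CHO cells stably expressing the channel, loaded with CC2-DMPE (10 µM) then DiSBAC2(3) (15 µM) plus VABSC-1, in HEPES-buffered saline pH 7.4 at room temperature. Electrical field stimulation on FDSS; FRET ratio at 440 nm fitted for IC50.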

T1 sequence (Q15858 whole entry): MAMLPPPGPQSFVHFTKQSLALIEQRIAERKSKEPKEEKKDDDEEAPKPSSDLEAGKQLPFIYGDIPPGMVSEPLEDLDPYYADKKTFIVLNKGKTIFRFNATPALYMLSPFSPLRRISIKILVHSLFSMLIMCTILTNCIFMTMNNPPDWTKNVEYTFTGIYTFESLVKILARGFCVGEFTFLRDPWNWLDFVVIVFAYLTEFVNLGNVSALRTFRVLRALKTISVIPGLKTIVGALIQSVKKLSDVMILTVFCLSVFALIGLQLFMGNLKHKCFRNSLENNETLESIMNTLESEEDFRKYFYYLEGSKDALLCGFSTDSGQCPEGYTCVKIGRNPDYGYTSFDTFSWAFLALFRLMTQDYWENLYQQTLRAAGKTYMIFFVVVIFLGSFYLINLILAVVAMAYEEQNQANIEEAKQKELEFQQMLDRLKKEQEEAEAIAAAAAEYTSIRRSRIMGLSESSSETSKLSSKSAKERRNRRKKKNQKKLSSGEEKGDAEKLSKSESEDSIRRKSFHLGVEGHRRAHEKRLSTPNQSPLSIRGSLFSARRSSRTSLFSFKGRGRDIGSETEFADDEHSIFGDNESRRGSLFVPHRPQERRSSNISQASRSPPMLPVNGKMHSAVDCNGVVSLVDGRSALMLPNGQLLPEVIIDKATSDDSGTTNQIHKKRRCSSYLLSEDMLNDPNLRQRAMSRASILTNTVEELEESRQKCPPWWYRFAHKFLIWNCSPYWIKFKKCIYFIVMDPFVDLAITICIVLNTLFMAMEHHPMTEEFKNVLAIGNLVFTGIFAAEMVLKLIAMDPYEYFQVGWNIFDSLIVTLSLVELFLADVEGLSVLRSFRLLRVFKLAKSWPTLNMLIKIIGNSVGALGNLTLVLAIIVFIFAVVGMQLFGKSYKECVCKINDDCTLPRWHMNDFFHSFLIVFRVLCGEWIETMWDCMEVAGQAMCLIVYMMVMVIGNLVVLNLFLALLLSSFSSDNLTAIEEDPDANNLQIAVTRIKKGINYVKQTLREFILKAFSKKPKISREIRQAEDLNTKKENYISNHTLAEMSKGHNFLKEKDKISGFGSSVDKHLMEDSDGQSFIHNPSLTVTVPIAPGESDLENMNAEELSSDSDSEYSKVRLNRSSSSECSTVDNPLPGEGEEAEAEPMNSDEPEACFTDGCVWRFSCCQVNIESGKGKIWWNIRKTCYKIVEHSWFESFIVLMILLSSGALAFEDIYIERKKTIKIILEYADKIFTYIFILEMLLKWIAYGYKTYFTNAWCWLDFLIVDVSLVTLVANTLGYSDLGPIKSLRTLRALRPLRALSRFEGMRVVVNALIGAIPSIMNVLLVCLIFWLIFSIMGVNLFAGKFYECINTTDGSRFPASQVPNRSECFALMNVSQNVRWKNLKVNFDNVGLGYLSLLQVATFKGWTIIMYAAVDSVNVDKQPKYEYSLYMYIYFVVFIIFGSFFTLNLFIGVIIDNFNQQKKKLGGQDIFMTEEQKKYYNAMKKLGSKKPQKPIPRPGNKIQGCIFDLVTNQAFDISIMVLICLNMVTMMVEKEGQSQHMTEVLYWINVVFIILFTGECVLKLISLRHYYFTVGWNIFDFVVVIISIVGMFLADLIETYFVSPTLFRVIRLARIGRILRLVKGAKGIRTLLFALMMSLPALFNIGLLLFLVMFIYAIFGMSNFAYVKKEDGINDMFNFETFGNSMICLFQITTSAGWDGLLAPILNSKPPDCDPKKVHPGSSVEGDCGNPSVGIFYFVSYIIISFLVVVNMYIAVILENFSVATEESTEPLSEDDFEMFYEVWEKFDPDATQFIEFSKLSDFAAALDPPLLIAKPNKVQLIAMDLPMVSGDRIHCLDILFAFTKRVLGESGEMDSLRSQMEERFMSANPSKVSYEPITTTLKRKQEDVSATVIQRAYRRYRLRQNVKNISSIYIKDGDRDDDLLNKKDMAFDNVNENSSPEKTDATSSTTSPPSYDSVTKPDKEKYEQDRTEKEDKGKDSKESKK

Compound | IC50 [nM]
CC(=O)Nc1cc(C(=O)NCc2ccc(OCC(F)(F)F)nc2N2CCCCC2)ccn1 [Example 302, 2-acetamido-N-((2-(piperidin-1-yl)-6-(2,2,2-trifluoroethoxy)pyridin-3-yl)methyl)isonicotinamide] | < 1000
CCC(=O)Nc1cc(C(=O)NCc2ccc(OCC(F)(F)F)nc2N2CCCCC2)ccn1 [Example 303, N-((2-(piperidin-1-yl)-6-(2,2,2-trifluoroethoxy)pyridin-3-yl)methyl)-2-propionamidoisonicotinamide] | < 1000
O=C(NCc1ccc(OCC(F)(F)F)nc1N1CCCCC1)c1ccnc(NC(=O)C2CC2)c1 [Example 304, 2-(cyclopropanecarboxamido)-N-((2-(piperidin-1-yl)-6-(2,2,2-trifluoroethoxy)pyridin-3-yl)methyl)isonicotinamide] | < 1000
CC(C)C(=O)Nc1cc(C(=O)NCc2ccc(OCC(F)(F)F)nc2N2CCCCC2)ccn1 [Example 305, 2-isobutyramido-N-((2-(piperidin-1-yl)-6-(2,2,2-trifluoroethoxy)pyridin-3-yl)methyl)isonicotinamide] | < 1000
CCC(=O)Nc1cc(C(=O)NCc2ccc(OCC(F)(F)F)nc2N2CCCCC2)cc(C)n1 [Example 306, 2-methyl-N-((2-(piperidin-1-yl)-6-(2,2,2-trifluoroethoxy)pyridin-3-yl)methyl)-6-propionamidoisonicotinamide] | < 1000
CC(=O)Nc1cc(C(=O)NCc2ccc(OCC(F)(F)F)nc2N2CCCCC2)cc(C)n1 [Example 307, 2-acetamido-6-methyl-N-((2-(piperidin-1-yl)-6-(2,2,2-trifluoroethoxy)pyridin-3-yl)methyl)isonicotinamide] | < 1000
CCCC(=O)Nc1cc(C(=O)NCc2ccc(OCC(F)(F)F)nc2N2CCCCC2)ccn1 [Example 308, 2-butyramido-N-((2-(piperidin-1-yl)-6-(2,2,2-trifluoroethoxy)pyridin-3-yl)methyl)isonicotinamide] | < 1000
CC(=O)Nc1cc(C(=O)NCc2cc(F)c(OCC(F)(F)F)nc2C)cc(C)n1 [Example 312, 2-acetamido-N-((5-fluoro-2-methyl-6-(2,2,2-trifluoroethoxy)pyridin-3-yl)methyl)-6-methylisonicotinamide] | < 1000
CCC(=O)Nc1cc(C(=O)NCc2cc(F)c(OCC(F)(F)F)nc2C)cc(C)n1 [Example 313, N-((5-fluoro-2-methyl-6-(2,2,2-trifluoroethoxy)pyridin-3-yl)methyl)-2-methyl-6-propionamidoisonicotinamide] | < 1000
Cc1nc(OCC(F)(F)F)c(F)cc1CNC(=O)c1ccnc(NC(=O)C(C)C)c1 [Example 314, N-((5-fluoro-2-methyl-6-(2,2,2-trifluoroethoxy)pyridin-3-yl)methyl)-2-isobutyramidoisonicotinamide] | < 1000
CCC(=O)Nc1cc(C(=O)NCc2cc(F)c(OCC(F)(F)F)nc2OC)cc(C)n1 [Example 328, N-((5-fluoro-2-methoxy-6-(2,2,2-trifluoroethoxy)pyridin-3-yl)methyl)-2-methyl-6-propionamidoisonicotinamide] | < 1000
CCOc1nc(OCC(F)(F)F)ccc1CNC(=O)c1ccnc(NC(C)=O)c1 [Example 332, 2-acetamido-N-((2-ethoxy-6-(2,2,2-trifluoroethoxy)pyridin-3-yl)methyl)isonicotinamide] | < 1000
CCOc1nc(OCC(F)(F)F)ccc1CNC(=O)c1ccnc(NC(=O)CC)c1 [Example 333, N-((2-ethoxy-6-(2,2,2-trifluoroethoxy)pyridin-3-yl)methyl)-2-propionamidoisonicotinamide] | < 1000
CCOc1nc(OCC(F)(F)F)ccc1CNC(=O)c1cc(C)nc(NC(=O)CC)c1 [Example 334, N-((2-ethoxy-6-(2,2,2-trifluoroethoxy)pyridin-3-yl)methyl)-2-methyl-6-propionamidoisonicotinamide] | < 1000
CCOc1nc(OCC(F)(F)F)ccc1CNC(=O)c1ccnc(NC(=O)C(C)C)c1 [Example 335, N-((2-ethoxy-6-(2,2,2-trifluoroethoxy)pyridin-3-yl)methyl)-2-isobutyramidoisonicotinamide] | < 1000
CCOc1nc(OCC(F)(F)F)ccc1CNC(=O)c1cc(C)nc(NC(C)=O)c1 [Example 336, 2-acetamido-N-((2-ethoxy-6-(2,2,2-trifluoroethoxy)pyridin-3-yl)methyl)-6-methylisonicotinamide] | < 1000
CCCC(=O)Nc1cc(C(=O)NCc2ccc(OCC(F)(F)F)nc2OCC)ccn1 [Example 337, 2-butyramido-N-((2-ethoxy-6-(2,2,2-trifluoroethoxy)pyridin-3-yl)methyl)isonicotinamide] | < 1000
CCOc1nc(OCC(F)(F)F)ccc1CNC(=O)c1cc(C)nc(NC(C)=O)n1 [Example 338, 2-acetamido-N-((2-ethoxy-6-(2,2,2-trifluoroethoxy)pyridin-3-yl)methyl)-6-methylpyrimidine-4-carboxamide] | < 1000

Compound | IC50 [nM]
Cc1cc(C(=O)NCc2cnc(OCC(F)(F)F)cc2C)nc(NC(=O)C(C)C)n1 [Example 353, 2-isobutyramido-6-methyl-N-((4-methyl-6-(2,2,2-trifluoroethoxy)pyridin-3-yl)methyl)pyrimidine-4-carboxamide] | < 1000
Cc1cc(C(=O)NCc2cnc(OCC(F)(F)F)c(C)c2)nc(NC(=O)C2CC2)n1 [Example 365, 2-(cyclopropanecarboxamido)-6-methyl-N-((5-methyl-6-(2,2,2-trifluoroethoxy)pyridin-3-yl)methyl)pyrimidine-4-carboxamide] | < 1000
Cc1cc(C(=O)NCc2cnc(OCC(F)(F)F)c(C)c2)nc(NC(=O)C(C)C)n1 [Example 366, 2-isobutyramido-6-methyl-N-((5-methyl-6-(2,2,2-trifluoroethoxy)pyridin-3-yl)methyl)pyrimidine-4-carboxamide] | < 1000
CC(=O)Nc1cc(C(=O)NCc2cnc(OCC(F)(F)F)c(C)c2)ccn1 [Example 367, 2-acetamido-N-((5-methyl-6-(2,2,2-trifluoroethoxy)pyridin-3-yl)methyl)isonicotinamide] | < 1000
Cc1cc(CNC(=O)c2ccnc(NC(=O)C(C)C)c2)cnc1OCC(F)(F)F [Example 370, 2-isobutyramido-N-((5-methyl-6-(2,2,2-trifluoroethoxy)pyridin-3-yl)methyl)isonicotinamide] | < 1000
COc1nc(OCC(F)(F)F)ccc1CNC(=O)c1cc(C)nc(NC(=O)C(C)C)n1 [Example 374, 2-isobutyramido-N-((2-methoxy-6-(2,2,2-trifluoroethoxy)pyridin-3-yl)methyl)-6-methylpyrimidine-4-carboxamide] | < 1000
Cc1cc(C(=O)NCc2cnc(OCC(F)(F)F)c(Cl)c2)nc(NC(=O)C(C)C)n1 [Example 385, N-((5-chloro-6-(2,2,2-trifluoroethoxy)pyridin-3-yl)methyl)-2-isobutyramido-6-methylpyrimidine-4-carboxamide] | < 1000
CC(=O)Nc1cc(C(=O)N(C)Cc2cnc(OCC(F)(F)F)c(C)c2)cc(C)n1 [Example 394, 2-acetamido-N,6-dimethyl-N-((5-methyl-6-(2,2,2-trifluoroethoxy)pyridin-3-yl)methyl)isonicotinamide] | < 1000
O=C(NCc1ccc(OCC(F)(F)F)nc1)c1ccnc(NC(=O)C2CC2)n1 [Example 397, 2-(cyclopropanecarboxamido)-N-((6-(2,2,2-trifluoroethoxy)pyridin-3-yl)methyl)pyrimidine-4-carboxamide] | < 1000
Cc1cc(OCC(F)(F)F)ncc1CNC(=O)c1ccnc(NC(=O)C2CC2)n1 [Example 403, 2-(cyclopropanecarboxamido)-N-((4-methyl-6-(2,2,2-trifluoroethoxy)pyridin-3-yl)methyl)pyrimidine-4-carboxamide] | < 1000
O=C(NCc1cccc(C(F)(F)F)c1)c1ccnc(NC(=O)C2CC2)n1 [Example 404, 2-(cyclopropanecarboxamido)-N-(3-(trifluoromethyl)benzyl)pyrimidine-4-carboxamide] | < 1000
Cc1nc(OCC(F)(F)F)ccc1CNC(=O)c1ccnc(NC(=O)C2CC2)n1 [Example 407, 2-(cyclopropanecarboxamido)-N-((2-methyl-6-(2,2,2-trifluoroethoxy)pyridin-3-yl)methyl)pyrimidine-4-carboxamide] | < 1000
CC(C)C(=O)Nc1nccc(C(=O)NCc2cnc(OCC(F)(F)F)c(Cl)c2)n1 [Example 412, N-((5-chloro-6-(2,2,2-trifluoroethoxy)pyridin-3-yl)methyl)-2-isobutyramidopyrimidine-4-carboxamide] | < 1000
COc1cc(CNC(=O)c2cc(C)nc(NC(=O)C3CC3)n2)cnc1OCC(F)(F)F [Example 442, 2-(cyclopropanecarboxamido)-N-((5-methoxy-6-(2,2,2-trifluoroethoxy)pyridin-3-yl)methyl)-6-methylpyrimidine-4-carboxamide] | < 1000
COc1cc(CNC(=O)c2ccnc(NC(=O)C3CC3)n2)cnc1OCC(F)(F)F [Example 444, 2-(cyclopropanecarboxamido)-N-((5-methoxy-6-(2,2,2-trifluoroethoxy)pyridin-3-yl)methyl)pyrimidine-4-carboxamide] | < 1000
Cc1cc(C(=O)NCc2ccc(OCCC(F)(F)F)nc2)cc(NC(=O)C(C)C)n1 [Example 490, 2-isobutyramido-6-methyl-N-((6-(3,3,3-trifluoropropoxy)pyridin-3-yl)methyl)isonicotinamide] | < 1000
Cc1cc(C(=O)NCc2ccc(OCC(F)(F)F)nc2C)cc(NC(=O)C(C)C)n1 [Example 493, 2-isobutyramido-6-methyl-N-((2-methyl-6-(2,2,2-trifluoroethoxy)pyridin-3-yl)methyl)isonicotinamide] | < 1000
CC(=O)Nc1cc(C(=O)NCc2cccc(C(F)(F)F)c2)cc(C)n1 [Example 532, 2-acetamido-6-methyl-N-(3-(trifluoromethyl)benzyl)isonicotinamide] | < 1000
